The values below come from patent US12448382B2, “Heterocyclic compounds for mediating tyrosine kinase 2 activity” (GUANGZHOU INNOCARE PHARMA TECH CO., LTD., priority 2019, dated 2025).

In test [1] the target is T1, human recombinant JAK2 protein (Homo sapiens, UniProt O60674).
T1 construct: purchased Carna Biosciences 08-045
As to the kind of experiment: JAK2 Inhibition Assay (HTRF kinase assay). It is filed as biochemical. Particulars: human recombinant JAK2, 2.5 μM ATP substrate solution. The procedure:
The effect of the compounds of the present invention on the enzymatic activity of JAK2 was assessed by detecting the substrate phosphorylation level in a kinase reaction using the HTRF kinase assay detection kit (Cisbio, Cat. No. 62TK0PEC).
(§1) The experimental method is generally described below:
A reaction buffer contained the following components: an enzyme reaction buffer (1×), 5 mM MgCl2, 1 mM DTT and 0.01% Brij35 from the kit. A JAK2 kinase solution contained a human recombinant JAK2 protein (Carna Biosciences, 08-045) diluted in the reaction buffer to 0.15 ng/μL. A substrate reaction solution contained 2.5 μM ATP and 0.25 μM of a biotinylated tyrosine kinase substrate from the kit in the reaction buffer. A detection solution contained 0.1 ng/μL Eu^3+-labeled cage antibody (Cisbio, 61T66KLB) and 12.5 nM streptavidin-labeled XL665 (Cisbio, 610SAXLB) in the reaction buffer.
(§2) The test compound was dissolved in DMSO to 10 μM, followed by a serial 4-fold dilution with DMSO to a minimum concentration of 0.061 nM. Each concentration was further diluted 40-fold with the reaction buffer.
To a 384-well assay plate (Corning, 3674) were added 4 μL of compound solution and 2 μL of JAK2 kinase solution. The mixture was mixed and incubated at room temperature for 15 minutes, and then added with 4 μL of the substrate reaction solution. After further incubation at room temperature for 30 minutes, the reaction mixture was added with an equal volume of 10 μL detection solution and allowed to stand at room temperature for 30 minutes. An Envision plate reader (Perkin Elmer) was then used to measure the progress of the reaction at 620 nm and 665 nm. The ratio of absorbances at 665 nm and 620 nm was positively correlated with the degree of substrate phosphorylation, therefore the activity of JAK2 kinase was detected. In the experiment, the group without JAK2 kinase protein was treated as the 100% inhibition group, and the group with JAK2 kinase protein but not the test compound was treated as the 0% inhibition group. The percentage of inhibition on JAK2 kinase activity by the test compound was calculated using the following formula: Percentage of inhibition=100−100*(ratiocompound−ratio100% inhibition)/(ratio0% inhibition−ratio100% inhibition)
The IC50 value of the test compound was calculated from 8 concentration points using the XLfit softwere (ID Business Solutions Ltd., UK) by the following formula: Y=Bottom+(Top−Bottom)/(1+10^((log IC50−X)×slope factor))
Where Y was the percentage of inhibition, X was the logarithm of the concentration of the test compound. Bottom was the bottom plateau value of the S-shaped curve, Top was the top plateau value of the S-shaped curve, and slope factor was the slope coefficient of the curve.
On the technique in general: TR-FRET usually uses a lanthanide donor and a delayed reading to cut background.

Test [2] concerns the target T2, human recombinant TYK2 protein (Homo sapiens, UniProt P29597).
T2 construct: purchased Carna Biosciences 08-147
T2 sequence (P29597 871-1187 limits assumed): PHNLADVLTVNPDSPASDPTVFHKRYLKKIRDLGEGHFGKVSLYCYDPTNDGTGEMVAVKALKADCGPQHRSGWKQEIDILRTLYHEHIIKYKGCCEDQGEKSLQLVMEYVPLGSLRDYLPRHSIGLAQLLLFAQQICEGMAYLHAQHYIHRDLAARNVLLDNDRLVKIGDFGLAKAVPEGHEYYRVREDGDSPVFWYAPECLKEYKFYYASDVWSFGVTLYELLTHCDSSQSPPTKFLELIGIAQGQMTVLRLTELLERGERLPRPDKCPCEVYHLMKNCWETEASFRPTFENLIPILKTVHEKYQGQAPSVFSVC
As to the kind of experiment: TYK2 Inhibition Assay (HTRF kinase assay). The format is biochemical. Particulars: human recombinant TYK2, 11.25 μM ATP substrate solution. The procedure:
The effect of the compounds of the present invention on the enzymatic activity of TYK2 was assessed by detecting the substrate phosphorylation level in a kinase reaction using the HTRF kinase assay detection kit (Cisbio, Cat. No. 62TK0PEC).
as §1
A reaction buffer contained the following components: an enzyme reaction buffer (1×), 5 mM MgCl2 mM DTT and 0.01% Brij35 from the kit. A TYK2 kinase solution contained human recombinant TYK2 protein (Carna Biosciences, 08-147) diluted in the reaction buffer to 0.25 ng/μL. A substrate reaction solution contained 11.25 μM ATP and 0.5 μM of a biotinylated tyrosine kinase substrate from the kit in the reaction buffer. A detection solution contained 0.1 ng/μL Eu^3+-labeled cage antibody (Cisbio, 61T66KLB) and 25 nM streptavidin-1 added XL665 (Cisbio, 610SAXLB) in the reaction buffer.
as §2
To a 384-well assay plate (Corning, 3674) were added 4 μL of compound solution and 2 μL of TYK2 kinase solution. The mixture was mixed and incubated at room temperature for 15 minutes, and then added with 4 μL of the substrate reaction solution. After further incubation at room temperature for 40 minutes, the reaction mixture was added with an equal volume of 10 μL detection solution and allowed to stand at room temperature for 30 minutes. An Envision plate reader (Perkin Elmer) was then used to measure the progress of the reaction at 620 nm and 665 nm. The ratio of absorbances at 665 nm and 620 nm was positively correlated with the degree of substrate phosphorylation, therefore the activity of TYK2 kinase was detected. In the experiment, the group without TYK2 kinase protein was treated as the 100% inhibition group, and the group with TYK2 kinase protein but not the test compound was treated as the 0% inhibition group. The percentage of inhibition on TYK2 kinase activity by the test, compound was calculated using the following formula: Percentage of inhibition=100−100*(ratiocompound−ratio100% inhibition)/(ratio0% inhibition−ratio100% inhibition)
The IC50 value of the test compound was calculated from 8 concentration points using the XLfit software (ID Business Solutions Ltd., UK) by the following formula: Y=Bottom+(Top−Bottom)/(1+10^((log IC50−X)slope factor))
Where Y was the percentage of inhibition, X was the logarithm of the concentration of the test compound, Bottom was the bottom plateau value of the S-shaped curve, Top was the top plateau value of the S-shaped curve, and slope factor was the slope coefficient of the curve.

Usually IC50 stands for the point on the concentration scale where inhibition reaches its midpoint.

T1 sequence (O60674 826-1132 limits assumed): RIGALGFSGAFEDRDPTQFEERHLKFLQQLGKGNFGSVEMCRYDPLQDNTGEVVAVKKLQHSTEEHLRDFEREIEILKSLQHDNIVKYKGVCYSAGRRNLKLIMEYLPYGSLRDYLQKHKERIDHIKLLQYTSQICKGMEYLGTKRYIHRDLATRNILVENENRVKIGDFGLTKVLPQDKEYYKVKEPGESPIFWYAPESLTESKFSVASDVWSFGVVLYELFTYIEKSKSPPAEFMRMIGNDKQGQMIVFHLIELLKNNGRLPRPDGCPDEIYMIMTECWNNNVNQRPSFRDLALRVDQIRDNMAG

As to `Cn1cc(Nc2nccc(N3C[C@]4(C)CN(C(=O)C5CC5)C[C@]4(C)C3)n2)cn1` [Compound 1, cyc1opropyl((3aR,6aS)-3a,6a-dimethyl-5-(2((1-methyl-1H-pyrazol-4-yl)amino)pyrimidin-4-yl)hexahydropyrrolo[3,4-c]pyrrol-2(1H)-yl)methanone], the IC50 in test [1] is 319 nM; in test [2], 125 nM.
In the case of `C[C@@]12CN(C(=O)C3CC3)C[C@]1(C)CN(c1ccnc(Nc3ccc(C(=O)O)cc3)n1)C2` [Compound 2], the IC50 was determined as 478 nM in test [1] and 62 nM in test [2].
The corresponding values for `Cn1cc(Nc2ncc(Cl)c(N3C[C@]4(C)CN(Cc5ccn(C)n5)C[C@]4(C)C3)n2)cn1` [Compound 75, 5-chloro-4-((3aR,6aS)-3a,6a-dimethyl-5-((1-methyl-1H-pyrazol-3-yl)methyl)hexahydropyrrolo[3,4-c]pyrrol-2(1H)-yl)-N-(1-methyl-1H-pyrazol-4-yl)pyrimidin-2-amine] are 325 nM and 98 nM.
The corresponding values for `Cn1cc(Nc2ncc(Cl)c(N3C[C@]4(C)CN(C(=O)C5CNC5)C[C@]4(C)C3)n2)cn1` [Compound 38, azetidin-3-yl((3aR,6aS)-5-(5-chloro-2-((1-methyl-1H-pyrazol-4-yl)amino)pyrimidin-4-yl)-3a,6a-dimethylhexahydropyrrolo[3,4-c]pyrrol-2(1H)-yl)methanone] are 50 nM and 43 nM.
With `CCOC(=O)N1C[C@@]2(C)CN(c3ccnc(Nc4cnn(C)c4)n3)C[C@@]2(C)C1` [Compound 6, ethyl (3aR,6aS)-3a,6a-dimethyl-5-(2-((1-methyl-1H-pyrazol-4-yl)amino)pyrimidin-4-yl)hexahydropyrrol[3,4-c]pyrrole-2(1H)-carboxylate], the figures for the IC50 in test [1] and in test [2] were 113 nM and 127 nM, respectively.
As to `COc1cnc(Nc2cnn(C)c2)nc1N1C[C@]2(C)CN(C(=O)CC#N)C[C@]2(C)C1` [Compound 97, 3-((3aR,6aS)-5-(5-methoxy-2-((1-methyl-1H-pyrazol-4-yl)amino)pyrimidin-4-yl)-3a,6a-dimethylhexahydropyrrolo[3,4-c]pyrrol-2(1H)-yl)-3-oxopropanenitrile], the IC50 in test [1] worked out at 8.1 nM; in test [2], 56 nM.
The corresponding values for `Cn1cc(Nc2nccc(N3C[C@]4(C)CN(CCC#N)C[C@]4(C)C3)n2)cn1` [Compound 7, 3-((3aR,6aS)-3a,6a-dimethyl-5-(2-((1-methyl-1H-pyrazol-4-yl)amino)pyrimidin-4-yl)hexahydropyrrolo[3,4-c]pyrrol-2(1H)-yl)propanenitrile] are 138 nM and 186 nM.
The matching figures for `CCNC(=O)c1ccc(Nc2ncc(F)c(N3C[C@H]4CN(C(=O)C5CC5(F)F)C[C@H]4C3)n2)cc1` (stereo partly shown) [Compound 9]: 38 nM and 13 nM.
As for `Cn1cc(Nc2nccc(N3C[C@]4(C)CN(C(=O)C5CC5(F)F)C[C@]4(C)C3)n2)cn1` (stereo partly drawn) [Compound 5, (2,2-difluorocyclopropyl)((3aR,6aS)-3a,6a-dimethyl-5-(2-((1-methyl-1H-pyrazol-4-yl)amino)pyrimidine-4-yl)hexahydropyrrolo[3,4-c]pyrrole-2(1H)-yl)methanone], the IC50 amounted to 82 nM in test [1] and 75 nM in test [2].
Turning to `Cn1cc(Nc2nccc(N3C[C@]4(C)CN(C(=O)C(F)(F)F)C[C@]4(C)C3)n2)cn1` [Compound 4, 1-((3aR,6aS)-3a,6a-dimethyl-5-(2((1-methyl-1H-pyrazol-4-yl)amino)pyrimidin-4-yl)hexahydropyrrolo[3,4-c]pyrrol-2(1H)-yl)-2,2,2-trifluoroethan-1-one], the concentration for half-maximal inhibition (IC50) is 126 nM in test [1] and 49 nM in test [2].
The matching figures for `Cn1cc(Nc2ncc(C#N)c(N3C[C@]4(C)CN(C(=O)C5CC5)C[C@]4(C)C3)n2)cn1` [Compound 15, 4-((3aR,6aS)-5-(cyclopropanecarbonyl)-3a,6a-dimethlhexahydropyrrolo[3,4-c]pyrrol-2(1H)-yl)-2-((1-methyl-1H-pyrazol-4-yl)amino)pyrimidine-5-carbonitrile]: 551 nM and 186 nM.
The matching figures for `Cc1cc(Nc2ncc(Cl)c(N3C[C@]4(C)CN(C(=O)C5CC5)C[C@]4(C)C3)n2)no1` [Compound 93]: 91 nM and 158 nM.
The matching figures for `Cn1ccc(Nc2ncc(Cl)c(N3C[C@]4(C)CN(C(=O)C5CC5)C[C@]4(C)C3)n2)n1` [Compound 94, ((3aR,6aS)-5-(5-chloro-2-((1-methyl-1H-pyrazol-3-yl)amino)pyrimidin-4-yl)-3a,6a-dimethylhexahydropyrrolo[3,4-c]pyrrol-2(1H)-yl)(cyclopropyl)methanone]: 34 nM and 224 nM.
On to `Cn1cc(Nc2nccc(N3C[C@]4(C)CN(C(=O)NCC#N)C[C@]4(C)C3)n2)cn1` [Compound 8, (3aR,6aS)-N-(cyanomethyl)-3a,6a-dimethyl-5-(2-((1-methyl-IH-pyrazol-4-yl)amino)pyrimidin-4-yl)hexahydropyrrolo[3,4-c]pyrrole-2(1H)-carboxamide], for which the IC50 in test [1] is 25 nM; in test [2] it was 66 nM.
The corresponding values for “5-chloro-4-((3aR,6aS)-3a,6a-dimethyl-5-((1-methyl-IH-pyrazol-4-yl)methyl)hexahydropyrrolo[3,4-c]pyrrol-2(1H)-yl)-N-(1-methyl-1H-pyrazol-4-yl)pyrimidin-2-amine [Compound 76]” are 475 nM and 149 nM.
The corresponding values for `Cn1cc(Nc2ncc(Cl)c(N3C[C@]4(C)CN(Cc5ncn(C)n5)C[C@]4(C)C3)n2)cn1` [Compound 77, 5-chloro-4-((3aR,6aS)-3a,6a-dimethyl-5-((1-methyl-1H-1,2,4-triazol-3-yl)methyl)hexahydropyrrolo[3,4-c]pyrrol-2(1H)-yl)-N-(1-methyl-1H-pyrazol-4-yl)pyrimidin-2-amine] are 136 nM and 30 nM.
As to `Cn1cc(Nc2ncc(Cl)c(N3C[C@]4(C)CN(CCO)C[C@]4(C)C3)n2)cn1` [Compound 49, 2-((3aR,6aS)-5-(5-chloro-2-((1-methyl-1H-pyrazol-4-yl)amino)pyrimidin-4-yl)-3a,6a-dimethylhexahydropyrrolo[3,4-c]pyrrol-2(1H)-yl)ethan-1-ol], the 50% inhibitory concentration (IC50) was 71 nM in test [1] and 52 nM in test [2].
